# Where “and” joins values, the source holds several entries; their conditions need not be identical. Identical values can stand only once. Like-named read-outs stand apart in the source and are kept apart here.
# Key:
# [1] = read-out: Plasma concentration at Cmax; cited from earlier work
# mouse hepatocytes = test: Metabolism of GNE1 in mouse hepatocytes with or without ABT; assay type: in vitro ADME; conditions: ABT 500 μM, GNE1 5 μM
# [2] = Intrinsic clearance in human hepatocytes; assay type: in vitro ADME; conditions: human hepatocytes 0.5 million cells/mL, 0.5 μM, scaled
# [3] = Intrinsic clearance in rat liver microsomes; assay type: in vitro ADME; conditions: rat liver microsomes 0.5 mg/mL, 0.5 μM, scaled
# [4] = not given; remark: listed apart in the source
# Unbound fraction in rat = assay type: in vitro ADME
# [5] = Unbound fraction in liver perfusate and liver homogenate; assay type: in vitro ADME, rat
# Log D at pH 7.4 = assay type: physicochemical; conditions: octanol/buffer
# [6] = Intrinsic clearance in human liver microsomes; assay type: in vitro ADME; conditions: human liver microsomes 0.5 mg/mL, 0.5 μM, scaled
# [7] = Single-pass isolated perfused rat liver; assay type: in vitro ADME; conditions: for Propranolol (cassette) ER: propranolol 2 to 4 μM
# MDCK parent cells = test: MDCK permeability and efflux; assay type: in vitro ADME; conditions: for MDCK A→B Papp: apical to basolateral
# [8] = Intravenous bolus and infusion pharmacokinetics in Sprague-Dawley rats; assay type: in vivo, rat; conditions: for Clearance relative to hepatic blood flow: dosed in rat; for Plasma CL: n = 3; for In vivo rat CLp IV bolus: plasma
# PAK1 = PAK1 (Homo sapiens, UniProt Q13153); test: PAK1 inhibition constant; assay type: biochemical; conditions: read-out: PAK1 Ki
# Kinetic solubility = assay type: physicochemical
# [9] = Intrinsic clearance in rat hepatocytes; assay type: in vitro ADME; conditions: rat hepatocytes 0.5 million cells/mL, 0.5 μM, scaled
# [10] = tested on: cryo-preserved rat hepatocytes; conditions: cited from earlier work
# Oct1/2 = test: Blood clearance in Oct1/2 double KO and wild-type mice with or without ABT; assay type: in vivo, mouse; conditions: for Reduction of blood clearance by ABT: ABT 100 mg/kg oral 2 h before GNE1 2 mg/kg IV
# [11] = tested on: N-acetyltransferase (rat S9); test: Acetyl-CoA-dependent N-acetylation in rat liver S9; assay type: in vitro ADME; conditions: S9 2 mg/mL, acetyl-CoA 1 mM
# cytochrome P450 (rat S9) = test: NADPH-dependent; assay type: in vitro ADME; conditions: S9 2 mg/mL, NADPH 1 mM
# propranolol metabolism = test: In vitro inhibition of propranolol metabolism by quinine; assay type: in vitro ADME; conditions: quinine 1-10 micromolar, in vitro (data not shown)
# Chain of PAK1 (Q13153 whole entry): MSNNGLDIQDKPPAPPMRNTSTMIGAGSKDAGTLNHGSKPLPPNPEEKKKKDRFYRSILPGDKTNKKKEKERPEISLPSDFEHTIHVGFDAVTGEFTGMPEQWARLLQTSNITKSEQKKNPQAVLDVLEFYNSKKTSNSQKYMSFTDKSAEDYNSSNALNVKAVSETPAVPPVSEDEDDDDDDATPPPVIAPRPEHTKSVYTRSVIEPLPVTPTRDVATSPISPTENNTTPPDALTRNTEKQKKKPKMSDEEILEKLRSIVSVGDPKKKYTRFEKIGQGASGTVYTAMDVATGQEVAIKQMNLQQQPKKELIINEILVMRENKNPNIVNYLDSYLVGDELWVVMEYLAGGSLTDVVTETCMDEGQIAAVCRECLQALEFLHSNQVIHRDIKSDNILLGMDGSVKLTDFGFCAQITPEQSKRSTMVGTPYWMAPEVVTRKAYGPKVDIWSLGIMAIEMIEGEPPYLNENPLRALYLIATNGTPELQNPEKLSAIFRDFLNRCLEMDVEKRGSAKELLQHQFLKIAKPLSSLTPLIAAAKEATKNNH
compound,measurement,setting,value
"Nn1nnc2ccccc21 [ABT, 1-aminobenzotriazole]",Cmax,[1],752 µM
same,Inhibition of oxidative and N-acetylation metabolism of GNE1,mouse hepatocytes,completely inhibited
"N[C@H]1CC[C@H](CNc2ncc(Cl)c(Nc3cc(C4CC4)[nH]n3)n2)CC1 [GNE1, N^2-(((1r,4r)-4-aminocyclohexyl)methyl)-5-chloro-N^4-(5-cyclopropyl-1H-pyrazol-3-yl)pyrimidine-2,4-diamine]",HH CLint,[2],0.144 L/h/kg
same,RLM CLint,[3],0.366 L/h/kg
same,Fecal recovery of unchanged GNE1 over 24 hours,BDC rats,24%
same,Dose recovery of unchanged GNE1 in bile,"BDC rats, 0-4h",7.8 ± 1.2 % of Total Dosed
same,Dose recovery of unchanged GNE1 in urine,"BDC rats, 0-4h",BQL
same,Dose recovery of unchanged GNE1 in feces,"BDC rats, 0-8h",5.8 ± 4.2 % of Total Dosed
same,Dose recovery of unchanged GNE1 in bile,"BDC rats, 4-8h",2.5 ± 0.9 % of Total Dosed
same,Dose recovery of unchanged GNE1 in urine,"BDC rats, 4-8h",30 % of Total Dosed and 30 ± 1.1 % of Total Dosed
same,Dose recovery of unchanged GNE1 in bile,"BDC rats, 8-24h",3.9 ± 1.8 % of Total Dosed
same,Dose recovery of unchanged GNE1 in feces,"BDC rats, 8-24h",18 % of Total Dosed and 18 ± 4.7 % of Total Dosed
same,Dose recovery of unchanged GNE1 in urine,"BDC rats, 8-24h",2.8 ± 1.0 % of Total Dosed
same,Dose recovery of unchanged GNE1 in bile,"BDC rats, 24-48h",<1 % of Total Dosed
same,Dose recovery of unchanged GNE1 in feces,"BDC rats, 24-48h",2.2 ± 1.4 % of Total Dosed
same,Dose recovery of unchanged GNE1 in urine,"BDC rats, 24-48h",<1 % of Total Dosed
same,Total Recovery (24–72 h) of unchanged GNE1,"BDC rats, 24–72 h",2.2 % of Total Dosed
same,Dose recovery of unchanged GNE1 in bile,"BDC rats, 48-72h",0 % of Total Dosed
same,Dose recovery of unchanged GNE1 in feces,"BDC rats, 48-72h",<1 % of Total Dosed
same,Dose recovery of unchanged GNE1 in urine,"BDC rats, 48-72h",<1 % of Total Dosed
same,Overall biliary excretion of unchanged GNE1,"BDC rats, 24 h",~14%
same,Recovery of GNE1 in feces during 0–24 hours,"BDC rats, 72 h collection experiment",31 % of Total Dosed
same,Percentage of GNE1 detected in urine,"BDC rats, compared with intact rats",30%
same,Total Recovery of unchanged GNE1,"BDC rats, up to 24 hours",71 % of Total Dosed
same,Biliary clearance as share of total clearance,"cannulated rats, IV",approximately 14%
same,Renal clearance as share of total clearance,"rats, IV",~16%
same,Total amount of GNE1 recovered in urine over 24 hours,"[4]; intact rats (no bile collection), % of dose",16% and 15.6% and 15%
same,Dose recovery of unchanged GNE1 in urine,"[4]; intact rats, 0-8 h (one value across 0-4h and 4-8h)",8.5 ± 2.3 % of Total Dosed
same,Dose recovery of unchanged GNE1 in urine,"[4]; intact rats, 8-24h",7.1 ± 2.0 % of Total Dosed
same,Dose recovery of unchanged GNE1 in urine,"[4]; intact rats, 24-48h",<1 % of Total Dosed
same,Dose recovery of unchanged GNE1 in feces,"[4]; intact rats, 24-48h (72 h experiment)",8.4 ± 2.9 % of Total Dosed
same,Total Recovery (24–72 h) of unchanged GNE1,"[4]; intact rats, 24–72 h",8.4 % of Total Dosed
same,Dose recovery of unchanged GNE1 in feces,"[4]; intact rats, 48-72h",<1 % of Total Dosed
same,Dose recovery of unchanged GNE1 in urine,"[4]; intact rats, 48-72h",<1 % of Total Dosed
same,Recovery of GNE1 in feces during 0–24 hours,"[4]; intact rats, 72 h collection experiment",up to 91 % of Total Dosed
same,Total Recovery of unchanged GNE1,"[4]; intact rats, up to 24 hours",93 % of Total Dosed
same,N-acetylation as share of total dose,"[4]; rat, IV",about 10%
same,fu rat,Unbound fraction in rat,0.16
same,fu perfusate,"[5]; isolated perfused liver perfusate (4% BSA, 20% bovine red blood cells)",0.3
same,fu in liver (corrected),"[5]; liver homogenate, corrected for dilution",0.3/0.01
same,Log DpH=7.4,Log D at pH 7.4,0.83
same,HLM CLint,[6],0.27 L/h/kg
same,GNE1 hepatic ER,[7]; GNE1 Cin = 0.3 μM with Quinine (10 μM),0.36
same,GNE1 hepatic ER,"[7]; GNE1 Cin = 0.3 μM, flow 12 mL/min",0.78
same,GNE1 hepatic ER,[7]; GNE1 Cin = 8 μM,0.41
same,Perfusate Cout,"[7]; end of perfusion, Cin = 0.3 μM",0.07 µM
same,Total liver concentration of GNE1,"[7]; end of perfusion, Cin = 0.3 μM",8 µM
same,"Biliary clearance, fold lower than calculated perfusate clearance","[7]; isolated perfused rat liver, Cin 0.3 μM",about 26 fold
same,Biliary clearance,"[7]; isolated perfused rat liver, GNE1 Cin = 0.3 μM",0.042 L/h/kg
same,Biliary clearance,"[7]; isolated perfused rat liver, GNE1 Cin = 0.3 μM with Quinine (10 μM)",0.00276 L/h/kg
same,Biliary clearance,"[7]; isolated perfused rat liver, GNE1 Cin = 8 μM",0.0138 L/h/kg
same,"kpu,u (intracellular to extracellular ratio of unbound concentrations)","[7]; liver/perfusate, Cin = 0.3 μM",3.8
same,Biliary clearance as share of total perfusate clearance,[7]; multiple IPL experiments,less than 5%
same,MDCK efflux ratio,MDCK parent cells,43
same,MDCK A→B Papp,MDCK parent cells,1 nm/s
same,Clearance relative to hepatic blood flow,[8],greater than hepatic blood flow
same,CLB (biliary clearance),"[8]; rat, IV bolus, 2 mg/kg",1.29 ± 0.372 L/h/kg
same,CLR (renal clearance),"[8]; rat, IV bolus, 2 mg/kg",2.98 ± 0.23 L/h/kg
same,Terminal half-life,"[8]; rat, IV bolus, 2 mg/kg",1.32 ± 0.43 h
same,Vss,"[8]; rat, IV bolus, 2 mg/kg",20.5 ± 1.92 L/kg
same,Plasma CL,"[8]; rat, IV bolus, 2 mg/kg",13 ± 3.18 L/h/kg
same,In vivo rat CLp IV bolus,"[8]; rat, IV bolus",13 L/h/kg
same,CLR (renal clearance),"[8]; rat, IV infusion 0.57 mg/kg/h",1.2 ± 0.072 L/h/kg and 1.21 ± 0.0732 L/h/kg
same,Terminal half-life,"[8]; rat, IV infusion 0.57 mg/kg/h",0.74 ± 0.10 h
same,Vss,"[8]; rat, IV infusion 0.57 mg/kg/h",4.2 ± 1.2 L/kg and 4.21 ± 1.16 L/kg
same,Plasma CL,"[8]; rat, IV infusion 0.57 mg/kg/h to 90% of steady state",7.26 ± 0.261 L/h/kg
same,Ki,PAK1,0.026 µM
same,Kinetic solubility,Kinetic solubility,157 µM
same,RH CLint,[9],2.04 L/h/kg
same,"Uptake rate (CLint, influx)",[10],11.1 mL/min/g of liver
same,Reduction of blood clearance by ABT,Oct1/2; Oct1/2 double KO mice,28.2%
same,Average change of blood clearance between wild-type and transporter KO mice,Oct1/2; regardless of ABT treatment,56%
same,Average overall decrease of blood clearance by ABT,Oct1/2; wild-type and double KO mice averaged,24%
same,Reduction of blood clearance by ABT,Oct1/2; wild-type mice,20.5%
"NC1CCN(c2nc(Nc3cc(C4CC4)[nH]n3)c3sccc3n2)CC1 [GNE2, 2-(4-aminopiperidin-1-yl)-N-(5-cyclopropyl-1H-pyrazol-3-yl) thieno [[3],2-d]pyrimidin-4-amine]",HH CLint,[2],0.456 L/h/kg
same,RLM CLint,[3],3.72 L/h/kg
same,CLint of N-acetylation in rat S9,[11],20.2 L/h/kg
same,CLint of P450 metabolism in rat S9,cytochrome P450 (rat S9),<0.6 L/h/kg
same,fu rat,Unbound fraction in rat,0.22
same,Log DpH=7.4,Log D at pH 7.4,0.48
same,HLM CLint,[6],0.516 L/h/kg
same,MDCK efflux ratio,MDCK parent cells,13.5
same,MDCK A→B Papp,MDCK parent cells,4 nm/s
same,Clearance relative to hepatic blood flow,[8],greater than hepatic blood flow
same,In vivo rat CLp IV bolus,"[8]; rat, IV bolus",>>hepatic blood flow
same,Ki,PAK1,0.022 µM
same,Kinetic solubility,Kinetic solubility,72 µM
same,RH CLint,[9],5.46 L/h/kg
"N[C@H]1CC[C@H](CNc2nccc(Nc3cc(C4CC4)[nH]n3)n2)CC1 [GNE3, N^2-(((1r,4r)-4-aminocyclohexyl)methyl)-N^4-(5-cyclo-propyl-1H-pyrazol-3-yl)pyrimidine-2,4-diamine]",HH CLint,[2],0.27 L/h/kg
same,RLM CLint,[3],0.498 L/h/kg
same,CLint of N-acetylation in rat S9,[11],1.26 L/h/kg
same,CLint of P450 metabolism in rat S9,cytochrome P450 (rat S9),<0.6 L/h/kg
same,fu rat,Unbound fraction in rat,0.25
same,Log DpH=7.4,Log D at pH 7.4,-0.2
same,HLM CLint,[6],0.546 L/h/kg
same,MDCK efflux ratio,MDCK parent cells,6.2
same,MDCK A→B Papp,MDCK parent cells,5 nm/s
same,Clearance relative to hepatic blood flow,[8],greater than hepatic blood flow
same,In vivo rat CLp IV bolus,"[8]; rat, IV bolus",9.6 L/h/kg
same,Ki,PAK1,0.026 µM
same,Kinetic solubility,Kinetic solubility,136 µM
same,RH CLint,[9],0.6 L/h/kg
"CC(C)NCC(O)COc1cccc2ccccc12 (centres unmarked) [propranolol, reference compound]",Propranolol (cassette) ER,[7]; cassette with GNE1 0.3 μM and Quinine (10 μM),0.45
same,Propranolol (cassette) ER,[7]; cassette with GNE1 Cin = 0.3 μM,> 0.95
same,Propranolol (cassette) ER,"[7]; cassette with GNE1 Cin = 0.3 μM, listed as Propranolol",>0.95
same,Propranolol (cassette) ER,[7]; cassette with GNE1 Cin = 8 μM,0.91
C=C[C@H]1C[N@@]2CC[C@H]1C[C@H]2[C@H](O)c1ccnc2ccc(OC)cc12 [quinine],Effect on propranolol metabolism,propranolol metabolism,inhibit propranolol metabolism

# From PMC5405622 (Drug Metabolism Letters, 2016)
